How the values were obtained:
[1] = tested on: left atrium of the anesthetized pig; experiment: Refractory period and left-atrial vulnerability in the anesthetized pig; type: in vivo; settings: bolus 1 mg/kg, mean value n = 3
Method: Investigation of the Refractory Period and the Left-Atrial Vulnerability in the Pig
The compounds were tested for prolongation of the refractory period and antiarrhythmic activity on the atrium of the anesthetized pig as described in the literature (Knobloch et al. 2002. Naunyn-Schmiedberg's Arch. Pharmacol. 366; 482-487). Here the anti-arrhythmic action relates to the inhibition of the occurrence of episodes of arrhythmias which are induced by a prematurely placed extra-stimulus (S2) in the left atrium (=left-atrial vulnerability). The refractory period values are stated in percent of the basal values 15 minutes after injection. Mean values for the refractory periods are shown from three rates (150, 200 and 250/min).
The action of 3-[5-Acetyl-1-(2,4-difluoro-benzyl)-4,5,6,7-tetrahydro-1H-pyrazolo[4,3-c]pyridin-3-yl]-benzonitrile (6a) on the refractory period of the left atrium and antiarrhythmic activity in the anesthetized pig after a bolus administration of 1 mg/kg is shown in table 1. From the results shown in table 1, it is seen that it was possible to prevent 61% of the induced arrhythmias.

Human TASK-1 channels = Human TASK-1 channels (Homo sapiens (Human), UniProt O14649); experiment: Activity on the TASK-1 channel in Xenopus oocytes (two-microelectrode voltage clamp); type: cell-based; settings: for IC50: human TASK-1 expressed in Xenopus oocytes, currents during pulses to 40 mV, room temperature
Sequence of Human TASK-1 channels (O14649 whole entry, the tested form may be a part): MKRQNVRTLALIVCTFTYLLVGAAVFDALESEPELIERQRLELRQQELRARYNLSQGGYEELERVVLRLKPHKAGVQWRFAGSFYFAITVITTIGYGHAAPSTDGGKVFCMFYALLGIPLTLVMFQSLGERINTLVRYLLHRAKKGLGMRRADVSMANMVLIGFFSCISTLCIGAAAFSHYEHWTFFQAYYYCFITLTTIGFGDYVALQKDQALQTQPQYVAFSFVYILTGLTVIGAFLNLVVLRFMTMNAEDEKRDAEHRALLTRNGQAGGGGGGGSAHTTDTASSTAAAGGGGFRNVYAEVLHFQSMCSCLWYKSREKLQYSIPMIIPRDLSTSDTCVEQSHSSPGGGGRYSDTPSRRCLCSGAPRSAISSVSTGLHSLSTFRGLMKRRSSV
Outline: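 Human TASK-1 was expressed in defolliculated Xenopus laevis oocytes by in vitro-synthesised RNA injection and recorded by two-microelectrode voltage clamp. Oocytes were superfused with ND96 (pH 7.4) at room temperature, with compound added at rising concentrations. IC50 came from a general dose-response fit.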

**Q.** With `CC(=O)N1CCc2c(c(-c3cccc(C#N)c3)nn2Cc2ccc(F)cc2F)C1` [Example 6a, 3-[5-Acetyl-1-(2,4-difluoro-benzyl)-4,5,6,7-tetrahydro-1H-pyrazolo[4,3-c]pyridin-3-yl]-benzonitrile] as the compound, how does the “% inhibition of the arrhythmias” value ([1]; S2-induced arrhythmias, 3 measurements before vs. 3 during first hour after administration) read?
**A.** Its value is 61%.

**Q.** What about the “% increase in the refractory period” value ([1]; left atrium, 15 minutes after injection, mean of three rates (150, 200 and 250/min)) of the same compound?
**A.** Its value is 14%.

**Q.** What about the IC50 (Human TASK-1 channels) of the same compound?
**A.** The IC50 was 95 nM.

**Q.** With `CC(=O)N1CCc2c(c(-c3ccc(F)cc3)nn2Cc2cccc(C(F)(F)F)c2)C1` [Example 6av, 1-[3-(4-Fluoro-phenyl)-1-(3-trifluoromethyl-benzyl)-1,4,6,7-tetrahydro-pyrazolo[4,3-c]pyridin-5-yl]-ethanone] as the compound, how does the IC50 (Human TASK-1 channels) read?
**A.** The IC50 was 911 nM.

**Q.** For `CC(=O)N1CCc2c(c(-c3cccc(C(F)(F)F)c3)nn2Cc2ccc(Cl)s2)C1` [Example 6ah, 1-[1-(5-Chloro-thiophen-2-ylmethyl)-3-(3-trifluoromethyl-phenyl)-1,4,6,7-tetrahydro-pyrazolo[4,3-c]pyridin-5-yl]-ethanone], which inhibition at 5 µM (Human TASK-1 channels) is on record?
**A.** Its inhibition at 5 µM is 53%.

**Q.** `CC(=O)N1CCc2c(c(-c3cccc(C#N)n3)nn2Cc2ccc(F)cc2F)C1` [Example 13b, 6-[5-Acetyl-1-(2,4-difluoro-benzyl)-4,5,6,7-tetrahydro-1H-pyrazolo[4,3-c]pyridin-3-yl]-pyridine-2-carbonitrile] was tested. Which IC50 (Human TASK-1 channels) did it give?
**A.** The IC50 was 462 nM.

**Q.** For `CCCC(=O)N1CCc2c(c(-c3cccc(C#N)c3)nn2Cc2ccc(F)cc2F)C1` [Example 8s, 3-[5-Butyryl-1-(2,4-difluoro-benzyl)-4,5,6,7-tetrahydro-1H-pyrazolo[4,3-c]pyridin-3-yl]-benzonitrile], which IC50 (Human TASK-1 channels) is on record?
**A.** The IC50 was less than 10000 nM.

**Q.** Which inhibition at 5 µM (Human TASK-1 channels) does the source give for `COc1ccc(-c2nn(Cc3ccc(F)cc3F)c3c2CN(C(C)=O)CC3)nc1Cl` [Example 6z, 1-[3-(6-Chloro-5-methoxy-pyridin-2-yl)-1-(2,4-difluoro-benzyl)-1,4,6,7-tetrahydro-pyrazolo[4,3-c]pyridin-5-yl]-ethanone] here?
**A.** Its inhibition at 5 µM is 75%.

**Q.** Which IC50 (Human TASK-1 channels) does the source give for `C[C@H](O)C(=O)N1CCc2c(c(-c3cccc(C#N)c3)nn2Cc2ccc(F)cc2F)C1` [Example 8q, 3-[1-(2,4-Difluoro-benzyl)-5-((S)-2-hydroxy-propionyl)-4,5,6,7-tetrahydro-1H-pyrazolo[4,3-c]pyridin-3-yl]-benzonitrile] here?
**A.** The IC50 was 756 nM.

**Q.** How did the IC50 (Human TASK-1 channels) turn out when `CC(C)C(=O)N1CCc2c(c(-c3cccc(C#N)c3)nn2Cc2ccc(F)cc2F)C1` [Example 8b, 3-[1-(2,4-Difluoro-benzyl)-5-isobutyryl-4,5,6,7-tetrahydro-1H-pyrazolo[4,3-c]pyridin-3-yl]-benzonitrile] was run?
**A.** The IC50 was 19 nM.
